# In US12509431B2, “1,4-dihydroquinazolinone compounds and uses thereof” (Edgewise Therapeutics, Inc., priority 2022, dated 2025):
# Legend:
# Assay type in all cases: biochemical
# Details in all cases: Table 8
# [1] = tested on: Rabbit Skeletal myofibrils (rabbit psoas muscle); test: Myofibril ATPase assay (PK/LDH NADH-coupled), skeletal myofibrils
# In short: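 Rabbit psoas myofibrils in pCa (PIPES/CaCl2/EGTA, pH 7.0) buffer; ADP coupled via PK/LDH to NADH loss, read at 340 nm every 1.5–2 min for 75 min. Slopes normalized to vehicle (100%) and fit to 4-parameter logistic for EC25, plus EC50 for inhibitors.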
# [2] = target: T1, Porcine Ventricle myofibrils (left ventricle of Yucatan minipigs) (Sus scrofa, UniProt P79293); test: Myofibril ATPase assay (PK/LDH NADH-coupled), ventricle myofibrils
# T1 construct: Myofibrils from porcine cardiac muscle was isolated from the left ventricle of Yucatan minipigs; tissue Exemplar Genetics; host or cells: left ventricle of Yucatan minipigs
# In short: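 Yucatan minipig left-ventricle myofibrils; ATPase measured by PK/LDH-coupled NADH loss at 340 nm, read every 1.5-2 min for 75 min. Slopes normalized to vehicle (100%) and fit to 4-parameter logistic model; EC25 and, for inhibitors, EC50 calculated.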
# [3] = tested on: Porcine Atria myofibrils; test: Myofibril ATPase assay (PK/LDH NADH-coupled), atria myofibrils
# In short: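 Porcine atrial myofibril ATPase followed via PK/LDH-coupled NADH depletion, absorbance at 340 nm read every 1.5-2 min over 75 min. Slopes (mAU/min) normalized to vehicle as 100% and fit to a 4-parameter logistic; EC25% derived, plus EC50% for inhibitors.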
# T1 sequence (P79293 whole entry): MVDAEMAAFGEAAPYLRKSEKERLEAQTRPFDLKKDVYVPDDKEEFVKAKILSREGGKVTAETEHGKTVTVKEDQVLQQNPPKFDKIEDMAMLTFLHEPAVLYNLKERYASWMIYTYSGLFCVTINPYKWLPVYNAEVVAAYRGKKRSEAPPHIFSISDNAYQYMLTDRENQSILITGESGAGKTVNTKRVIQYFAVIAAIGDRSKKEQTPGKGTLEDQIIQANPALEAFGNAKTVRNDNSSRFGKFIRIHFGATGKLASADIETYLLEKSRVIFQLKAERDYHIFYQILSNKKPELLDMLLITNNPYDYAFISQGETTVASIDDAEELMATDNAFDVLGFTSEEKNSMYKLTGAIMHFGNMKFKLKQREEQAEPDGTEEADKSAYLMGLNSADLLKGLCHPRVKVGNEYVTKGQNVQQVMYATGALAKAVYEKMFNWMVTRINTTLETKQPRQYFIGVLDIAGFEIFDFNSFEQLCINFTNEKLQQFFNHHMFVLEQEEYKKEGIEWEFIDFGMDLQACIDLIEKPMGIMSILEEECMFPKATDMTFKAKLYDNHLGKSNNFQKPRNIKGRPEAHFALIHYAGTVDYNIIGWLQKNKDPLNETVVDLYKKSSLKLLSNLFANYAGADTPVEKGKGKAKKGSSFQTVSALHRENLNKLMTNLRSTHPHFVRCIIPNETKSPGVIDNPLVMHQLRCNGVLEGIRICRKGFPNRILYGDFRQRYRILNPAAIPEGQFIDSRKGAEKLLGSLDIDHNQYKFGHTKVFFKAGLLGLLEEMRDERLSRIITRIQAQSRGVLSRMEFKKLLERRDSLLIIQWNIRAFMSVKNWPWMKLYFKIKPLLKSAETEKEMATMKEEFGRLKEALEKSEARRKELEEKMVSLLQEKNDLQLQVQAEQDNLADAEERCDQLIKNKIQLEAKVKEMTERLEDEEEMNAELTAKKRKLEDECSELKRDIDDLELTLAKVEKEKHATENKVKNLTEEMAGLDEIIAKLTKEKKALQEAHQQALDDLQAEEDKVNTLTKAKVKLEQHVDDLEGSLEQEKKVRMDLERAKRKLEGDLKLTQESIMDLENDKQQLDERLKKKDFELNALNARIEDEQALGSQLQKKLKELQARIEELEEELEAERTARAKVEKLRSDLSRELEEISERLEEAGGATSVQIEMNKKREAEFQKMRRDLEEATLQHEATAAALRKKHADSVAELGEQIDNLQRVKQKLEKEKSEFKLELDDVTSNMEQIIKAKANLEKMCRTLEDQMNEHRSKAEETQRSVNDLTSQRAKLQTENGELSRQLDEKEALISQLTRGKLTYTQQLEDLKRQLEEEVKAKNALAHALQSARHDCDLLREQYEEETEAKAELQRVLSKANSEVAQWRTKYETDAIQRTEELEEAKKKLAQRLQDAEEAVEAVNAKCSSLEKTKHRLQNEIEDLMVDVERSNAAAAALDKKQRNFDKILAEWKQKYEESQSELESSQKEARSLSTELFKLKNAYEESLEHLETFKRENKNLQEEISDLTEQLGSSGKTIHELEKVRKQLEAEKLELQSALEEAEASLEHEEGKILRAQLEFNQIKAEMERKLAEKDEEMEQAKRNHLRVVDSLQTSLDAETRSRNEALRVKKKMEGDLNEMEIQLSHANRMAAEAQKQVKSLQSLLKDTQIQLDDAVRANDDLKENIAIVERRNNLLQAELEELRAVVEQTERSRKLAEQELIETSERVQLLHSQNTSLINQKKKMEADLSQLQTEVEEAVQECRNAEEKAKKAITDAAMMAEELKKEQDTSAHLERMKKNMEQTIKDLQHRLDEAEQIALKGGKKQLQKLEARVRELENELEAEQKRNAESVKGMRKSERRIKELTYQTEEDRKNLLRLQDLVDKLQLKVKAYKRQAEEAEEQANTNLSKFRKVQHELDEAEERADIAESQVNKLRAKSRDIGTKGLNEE
Rabbit Psoas IC25 [1] [µM],Porcine Ventricle IC25 [2] [µM],Porcine Atria IC25 [3] [µM],SMILES
100,100,68.80,COc1cccnc1[C@H](C)NC(=O)CN1Cc2cc(F)ccc2NC1=O [Compound B187]
0.4649,1.834,0.42,C[C@@H](NC(=O)CN1Cc2c(ccc(F)c2F)NC1=O)c1ccc(C#N)cc1F [Compound B188]
9.504,50.31,17.83,C[C@@H](NC(=O)CN1Cc2c(ccc(F)c2F)NC1=O)c1ncc(F)cc1F [Compound B190]
100,100,100.00,Cc1cccnc1[C@@H](C)NC(=O)CN1Cc2cc(F)ccc2NC1=O [Compound B192]
41.67,40.61,28.17,Cc1cccnc1[C@H](C)NC(=O)CN1Cc2cc(F)ccc2NC1=O [Compound B193]
6.088,78.56,3.71,Cc1cnc([C@@H](C)NC(=O)CN2Cc3cc(F)ccc3NC2=O)c(F)c1 [Compound B194]
100,100,100.00,Cc1cnc([C@H](C)NC(=O)CN2Cc3cc(F)ccc3NC2=O)c(F)c1 [Compound B195]
100,100,100.00,C[C@@H](NC(=O)CN1Cc2cc(C#N)ccc2NC1=O)c1ncc(F)cc1F [Compound B196]
87.6,100,18.70,C[C@H](NC(=O)CN1Cc2cc(C#N)ccc2NC1=O)c1ncc(F)cc1F [Compound B197]
100,100,100.00,C[C@@H](NC(=O)CN1Cc2cc(F)ccc2NC1=O)c1ncc(C#N)cc1F [Compound B198]
18.61,100,25.98,C[C@H]1c2ccccc2NC(=O)N1CC(=O)N[C@@H](CO)c1ccc(F)cc1F [Compound B201]
0.1741,1.035,0.18,CC(NC(=O)CN1Cc2cc(F)ccc2NC1=O)c1ccccc1Br (stereo not drawn) [Compound B202]
14.19,23.26,5.48,C[C@@H](NC(=O)CN1Cc2cc(F)ccc2NC1=O)c1ccc(C#N)cc1 [Compound B203]
0.1501,1.393,0.27,C[C@H](NC(=O)CN1Cc2cc(F)ccc2NC1=O)c1ccc(C#N)cc1 [Compound B204]
6.054,16.29,2.07,C[C@@H](NC(=O)CN1Cc2cc(F)ccc2NC1=O)c1ccc(C#N)cc1F [Compound B205]
100,100,100.00,CC(C)C[C@@H](C(=O)N[C@@H](C)c1ccc(F)cc1F)N1Cc2cc(F)ccc2NC1=O [Compound B207]
100,100,100.00,CC(C)C[C@H](C(=O)N[C@@H](C)c1ccc(F)cc1F)N1Cc2cc(F)ccc2NC1=O [Compound B208]
100,100,12.15,Cc1ccc([C@@H](C)NC(=O)CN2Cc3cc(F)ccc3NC2=O)c(F)c1 [Compound B209]
0.1421,2.251,0.18,Cc1ccc([C@H](C)NC(=O)CN2Cc3cc(F)ccc3NC2=O)c(F)c1 [Compound B210]
100,100,100.00,C[C@@H](C(=O)N[C@H](CO)c1ccc(F)cc1F)N1Cc2c(Cl)cccc2NC1=O [Compound B211]
77.91,15.17,1.52,C[C@@H](C(=O)N[C@@H](CO)c1ccc(F)cc1F)N1Cc2c(Cl)cccc2NC1=O [Compound B212]
100,100,97.43,C[C@H](C(=O)N[C@H](CO)c1ccc(F)cc1F)N1Cc2c(Cl)cccc2NC1=O [Compound B213]

Rabbit Psoas IC25 [1] [µM],Porcine Ventricle IC25 [2] [µM],Porcine Atria IC25 [3] [µM],SMILES
0.088,0.2408,0.07,C[C@H](C(=O)N[C@@H](CO)c1ccc(F)cc1F)N1Cc2c(Cl)cccc2NC1=O [Compound B214]
100,100,100.00,C[C@@H](NC(=O)CN1Cc2cc(F)ccc2NC1=O)c1ncccn1 [Compound B215]
100,100,100.00,C[C@H](NC(=O)CN1Cc2cc(F)ccc2NC1=O)c1ncccn1 [Compound B216]
0.0678,0.8987,0.13,O=C(CN1Cc2cc(F)ccc2NC1=O)N[C@H](CO)c1ccc(F)cc1F [Compound B217]
9.306,100,8.55,O=C(CN1Cc2cc(F)ccc2NC1=O)N[C@@H](CO)c1ccc(F)cc1F [Compound B218]
31.8,100,100.00,C[C@H](NC(=O)[C@H](Cc1ccccc1)N1Cc2cc(F)ccc2NC1=O)c1ccc(F)cc1F [Compound B219]
47.56,100,53.57,C[C@H](NC(=O)[C@@H](Cc1ccccc1)N1Cc2cc(F)ccc2NC1=O)c1ccc(F)cc1F [Compound B220]
0.0174,0.1086,0.03,C[C@H](NC(=O)CN1C(=O)Nc2ccc(F)cc2C12CC2)c1ccc(F)cc1F [Compound B221]
0.041,0.4365,0.05,C[C@H](NC(=O)[C@H](C)N1Cc2c(F)cccc2NC1=O)c1ccc(F)cc1F [Compound B222]
1.426,3.783,0.44,C[C@H](NC(=O)[C@@H](C)N1Cc2c(F)cccc2NC1=O)c1ccc(F)cc1F [Compound B223]
3.991,100,28.57,Cc1cc(F)ccc1[C@@H](C)NC(=O)CN1Cc2cc(F)ccc2NC1=O [Compound B224]
0.0175,0.1849,0.05,Cc1cc(F)ccc1[C@H](C)NC(=O)CN1Cc2cc(F)ccc2NC1=O [Compound B225]
0.0244,0.2274,0.14,C[C@H](NC(=O)CN1Cc2c(Br)cccc2NC1=O)c1ccc(F)cc1F [Compound B226]
0.0127,0.2485,0.06,C[C@H](NC(=O)[C@H](C)N1Cc2c(Br)cccc2NC1=O)c1ccc(F)cc1F [Compound B227]
0.2844,2.111,0.32,C[C@H](NC(=O)[C@@H](C)N1Cc2c(Br)cccc2NC1=O)c1ccc(F)cc1F [Compound B228]
0.0356,0.156,0.06,"C[C@H](NC(=O)CN1C(=O)Nc2ccccc2C12CC2)c1ccc(F)cc1F [Compound B229, N-[(1S)-1-(2,4-Difluorophenyl)ethyl]-2-{2′-oxo-1′H-spiro[cyclopropane-1,4′-quinazolin]-3′-yl}acetamide]"
0.182,1.835,0.22,C[C@H](NC(=O)CN1Cc2cc(F)ccc2NC1=O)c1ncc(F)cc1F [Compound B230]
100,100,1.15,C[C@H](NC(=O)CN1C(=O)Nc2ccc(F)cc2[C@H]1C(F)(F)F)c1ccc(F)cc1F [Compound B235]
0.0333,0.2316,0.03,C[C@H](NC(=O)[C@@H](C)N1Cc2c(ccc(F)c2F)NC1=O)c1ccc(F)cc1F [Compound B236]
0.3164,8.122,0.28,C[C@H](NC(=O)[C@H](C)N1Cc2c(ccc(F)c2F)NC1=O)c1ccc(F)cc1F [Compound B237]
0.0116,0.1435,0.03,C[C@H](NC(=O)CN1Cc2c(ccc(F)c2F)NC1=O)c1ccc(F)cc1F [Compound B238]
